Data from ChEMBL document CHEMBL4616720 (J Med Chem, 2020).

What was measured:
[1] = system: MCF7; test: Antiproliferative activity against human MCF7 cells assessed as reduction in cell growth measured after 48 hrs by CCK8 assay; assay type: functional, cell-based; conditions: MCF7, 48 h
[2] = system: MCF-10A; test: Cytotoxicity against human MCF10A cells assessed as reduction in cell growth measured after 48 hrs by CCK8 assay; assay type: cell-based
[3] = target: T1, Peptide deformylase, mitochondrial (Homo sapiens, UniProt Q9HBH1); test: Inhibition of human PDF expressed in Escherichia coli BL21 pLysS using formyl-Met-Ala-His-Ala peptide as substrate measured after 1 hr by fluorescamine-based fluorescence assay
T1 sequence (Q9HBH1 whole entry): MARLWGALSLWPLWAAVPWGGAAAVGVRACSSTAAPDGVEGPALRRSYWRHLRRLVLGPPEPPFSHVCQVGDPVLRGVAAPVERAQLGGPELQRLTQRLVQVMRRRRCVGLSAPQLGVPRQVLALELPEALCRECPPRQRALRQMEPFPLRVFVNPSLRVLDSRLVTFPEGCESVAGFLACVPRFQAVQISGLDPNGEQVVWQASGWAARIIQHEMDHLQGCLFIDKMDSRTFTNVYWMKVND

[4] = system: SJSA-1; test: Antiproliferative activity against human SJSA1 cells assessed as reduction in cell growth measured after 48 hrs by CCK8 assay; assay type: functional, cell-based; conditions: SJSA-1, 48 h
[5] = system: A549; test: Antiproliferative activity against human A549 cells assessed as reduction in cell growth measured after 48 hrs by CCK8 assay; assay type: functional, cell-based; conditions: A549, 48 h
[6] = system: HL-60; test: Antiproliferative activity against human HL60 cells assessed as reduction in cell growth measured after 48 hrs by CCK8 assay; assay type: functional, cell-based; conditions: HL-60, 48 h
[7] = system: HCT-116; test: Antiproliferative activity against human HCT116 cells assessed as reduction in cell growth measured after 48 hrs by CCK8 assay; assay type: functional, cell-based; conditions: HCT-116, 48 h
[8] = target: T2, Protein deacetylase HDAC6 (Homo sapiens) (UniProt Q9UBN7); test: Inhibition of HDAC6 (unknown origin) at 10 uM using Boc-Lys(Ac)-pNA as substrate preincubated for 20 mins followed by substrate addition and further incubated for 90 mins by fluorescence assay relative to control
T2 sequence (whole entry): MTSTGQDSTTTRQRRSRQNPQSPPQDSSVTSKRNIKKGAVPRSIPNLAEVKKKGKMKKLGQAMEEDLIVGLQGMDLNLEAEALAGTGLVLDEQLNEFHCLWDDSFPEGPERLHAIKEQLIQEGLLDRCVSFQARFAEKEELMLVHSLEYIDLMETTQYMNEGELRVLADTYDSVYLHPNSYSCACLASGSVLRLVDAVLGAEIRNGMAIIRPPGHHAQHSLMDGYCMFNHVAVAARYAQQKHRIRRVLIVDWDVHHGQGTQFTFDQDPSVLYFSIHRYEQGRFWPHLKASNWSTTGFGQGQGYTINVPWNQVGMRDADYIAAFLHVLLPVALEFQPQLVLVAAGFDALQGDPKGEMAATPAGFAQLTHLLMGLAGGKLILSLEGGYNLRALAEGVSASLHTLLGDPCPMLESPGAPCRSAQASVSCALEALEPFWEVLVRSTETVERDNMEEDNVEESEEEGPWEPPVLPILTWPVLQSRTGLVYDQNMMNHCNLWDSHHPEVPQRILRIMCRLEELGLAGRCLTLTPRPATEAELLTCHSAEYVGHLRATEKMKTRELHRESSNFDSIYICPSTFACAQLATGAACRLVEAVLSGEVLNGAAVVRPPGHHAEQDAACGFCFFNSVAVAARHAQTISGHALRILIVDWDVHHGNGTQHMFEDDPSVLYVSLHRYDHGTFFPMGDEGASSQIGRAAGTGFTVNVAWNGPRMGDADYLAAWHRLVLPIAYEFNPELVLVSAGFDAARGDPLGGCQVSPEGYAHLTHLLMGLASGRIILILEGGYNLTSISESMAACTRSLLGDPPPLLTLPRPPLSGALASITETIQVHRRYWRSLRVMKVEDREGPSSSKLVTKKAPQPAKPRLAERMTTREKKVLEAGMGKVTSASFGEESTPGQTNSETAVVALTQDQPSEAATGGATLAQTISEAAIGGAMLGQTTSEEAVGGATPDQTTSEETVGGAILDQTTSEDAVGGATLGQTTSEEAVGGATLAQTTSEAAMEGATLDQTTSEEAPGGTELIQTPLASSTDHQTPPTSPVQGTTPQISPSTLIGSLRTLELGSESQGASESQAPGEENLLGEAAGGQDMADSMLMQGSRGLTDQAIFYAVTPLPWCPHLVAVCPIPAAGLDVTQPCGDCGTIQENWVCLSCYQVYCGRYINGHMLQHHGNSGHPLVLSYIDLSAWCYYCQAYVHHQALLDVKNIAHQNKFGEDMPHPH

[9] = target: T3, Histone deacetylase 1 (Homo sapiens, UniProt Q13547); test: Inhibition of HDAC1 (unknown origin) at 10 uM using Boc-Lys(Ac)-pNA as substrate preincubated for 20 mins followed by substrate addition and further incubated for 90 mins by fluorescence assay relative to control
[10] = target: T4, Protein deacetylase HDAC6 (Homo sapiens, UniProt Q9UBN7); test: Inhibition of HDAC6 (unknown origin) using Boc-Lys(Ac)-pNA as substrate preincubated for 20 mins followed by substrate addition and further incubated for 90 mins by fluorescence assay
T4 sequence (Q9UBN7 whole entry): T2 sequence (whole entry)

[11] = target: T3, Histone deacetylase 1; test: Inhibition of HDAC1 (unknown origin) using Boc-Lys(Ac)-pNA as substrate preincubated for 20 mins followed by substrate addition and further incubated for 90 mins by fluorescence assay

T3 sequence (Q13547 whole entry): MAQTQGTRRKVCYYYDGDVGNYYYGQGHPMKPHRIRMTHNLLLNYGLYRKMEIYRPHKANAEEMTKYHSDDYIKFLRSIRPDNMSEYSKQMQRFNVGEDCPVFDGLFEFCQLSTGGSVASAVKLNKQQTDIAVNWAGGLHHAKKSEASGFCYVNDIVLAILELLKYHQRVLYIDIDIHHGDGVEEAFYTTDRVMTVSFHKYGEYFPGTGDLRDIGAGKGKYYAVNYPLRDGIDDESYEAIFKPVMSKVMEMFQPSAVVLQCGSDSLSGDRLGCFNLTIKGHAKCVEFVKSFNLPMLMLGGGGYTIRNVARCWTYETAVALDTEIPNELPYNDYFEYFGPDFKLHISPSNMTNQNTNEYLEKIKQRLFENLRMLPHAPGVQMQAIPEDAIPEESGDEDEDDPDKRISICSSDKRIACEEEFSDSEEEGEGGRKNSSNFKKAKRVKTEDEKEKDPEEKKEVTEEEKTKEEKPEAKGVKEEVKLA

Row | IC50 [3] [µM] | IC50 [7] [µM] | Structure (SMILES) | other results
1 | 0.00719 | 4.11 | O=C(C[C@@H](CC1CCCC1)C(=O)N1CC2(CC2)C[C@H]1c1nc(-c2ccc(C(F)(F)F)cc2)no1)NO | IC50 [1]: 5.79 µM; IC50 [2]: 22.4 µM; IC50 [4]: 2.95 µM; IC50 [5]: 3.45 µM; IC50 [6]: 3.06 µM
2 | 0.00647 | 3.49 | O=C(C[C@@H](CC1CCCC1)C(=O)N1CC2(CC2)C[C@H]1c1nc(-c2ccc(C(F)(F)F)cc2Cl)no1)NO | IC50 [1]: 5.78 µM; IC50 [2]: 28.4 µM; IC50 [4]: 3.15 µM; IC50 [5]: 2.53 µM; IC50 [6]: 3.45 µM
3 | 0.00548 | 2.87 | O=C(C[C@@H](CC1CCCC1)C(=O)N1CC2(CC2)C[C@H]1c1nc(-c2ccc(Br)cc2)no1)NO | IC50 [1]: 3.56 µM; IC50 [2]: 21.7 µM; IC50 [4]: 2.56 µM; IC50 [5]: 2.61 µM; IC50 [6]: 2.17 µM
4 | 0.00278 | 18.7 | Cc1cnc(NC(=O)[C@@H]2CC3(CC3)CN2C(=O)[C@@H](CC(=O)NO)CC2CCCC2)s1 | 
5 | 0.00299 | 29.1 | Cc1csc(NC(=O)[C@@H]2CC3(CC3)CN2C(=O)[C@@H](CC(=O)NO)CC2CCCC2)n1 | 
6 | 0.00587 | > 40 | O=C(C[C@@H](CC1CCCC1)C(=O)N1CC2(CC2)C[C@H]1C(=O)Nc1cnccn1)NO | 
7 | 0.00715 | > 40 | C=C1C[C@@H](C(=O)Nc2ccc(F)cn2)N(C(=O)[C@@H](CC(=O)NO)CC2CCCC2)C1 | 
8 | 0.00501 | > 40 | O=C(C[C@@H](CC1CCCC1)C(=O)N1CC2(CC2)C[C@H]1c1nc(-c2ccc(F)cn2)no1)NO | 
9 | 0.00424 | 2.07 | CCCCc1ccc(-c2noc([C@@H]3CC4(CC4)CN3C(=O)[C@@H](CC(=O)NO)CC3CCCC3)n2)cc1 | 
10 | 0.0109 | > 40 | O=C(C[C@@H](CC1CCCC1)C(=O)N1CCC[C@H]1C(=O)Nc1ccc(F)cn1)NO | 
11 | 0.0131 | > 40 | O=C(C[C@@H](CC1CCCC1)C(=O)N1CC2(CC2)C[C@H]1C(=O)Nc1cccnn1)NO | 
12 | 0.0293 | > 40 | Cc1noc([C@@H]2CC3(CC3)CN2C(=O)[C@@H](CC(=O)NO)CC2CCCC2)n1 | 
13 | 0.00881 | 2.31 | CCc1ccc(-c2noc([C@@H]3CC4(CC4)CN3C(=O)[C@@H](CC(=O)NO)CC3CCCC3)n2)cc1 | IC50 [1]: 3.95 µM; IC50 [2]: 19.9 µM; IC50 [4]: 2.82 µM; IC50 [5]: 2.43 µM; IC50 [6]: 1.88 µM
14 | 0.00587 | 20.2 | O=C(C[C@@H](CC1CCCC1)C(=O)N1CC2(CC2)C[C@H]1C(=O)Nc1ccc(F)cn1)NO | 
15 | 0.00642 | 14.9 | O=C(C[C@@H](CC1CCCC1)C(=O)N1CC2(CC2)C[C@H]1C(=O)Nc1ccccc1)NO | 
16 | 0.00501 | 3.47 | O=C(C[C@@H](CC1CCCC1)C(=O)N1CC2(CC2)C[C@H]1c1nc(-c2ccc(C3CC3)cc2)no1)NO | 
17 | 0.00874 | > 40 | O=C(C[C@@H](CC1CCCC1)C(=O)N1CC2(CC2)C[C@H]1C(=O)Nc1nccs1)NO | 

The remaining lines, values behind:

Row | Structure (SMILES) | IC50 [3] [µM] | IC50 [7] [µM] | other results
18 | O=C(C[C@@H](CC1CCCC1)C(=O)N1CC2(CC2)C[C@H]1c1nc(-c2ccc(C(F)(F)F)cc2F)no1)NO | 0.00485 | 10 | IC50 [1]: 10.6 µM; IC50 [2]: 29.1 µM; IC50 [4]: 8.7 µM; IC50 [5]: 10.3 µM; IC50 [6]: 4.77 µM
19 | Cc1ccc(-c2noc([C@@H]3CC4(CC4)CN3C(=O)[C@@H](CC(=O)NO)CC3CCCC3)n2)cc1 | 0.00926 | 7.78 | IC50 [1]: 9.89 µM; IC50 [2]: 29.8 µM; IC50 [4]: 5.35 µM; IC50 [5]: 8.69 µM; IC50 [6]: 5.35 µM
20 | O=C(C[C@@H](CC1CCCC1)C(=O)N1CC2(CC2)C[C@H]1c1nc(-c2ccccc2)no1)NO | 0.00377 | 4.46 | IC50 [1]: 8.64 µM; IC50 [2]: 32.3 µM; inhibition [8]: 1.08%; IC50 [4]: 3.8 µM; IC50 [5]: 2.55 µM; inhibition [9]: -0.95%; IC50 [6]: 3.58 µM; IC50 [10]: > 10 µM; IC50 [11]: > 10 µM
21 | Cn1cc(NC(=O)[C@@H]2CC3(CC3)CN2C(=O)[C@@H](CC(=O)NO)CC2CCCC2)cn1 | 0.0302 | > 40 | 
22 | O=C(C[C@@H](CC1CCCC1)C(=O)N1CC2(CC2)C[C@H]1C(=O)Nc1ccncn1)NO | 0.00953 | > 40 | 
23 | O=C(C[C@@H](CC1CCCC1)C(=O)N1CC2(CC2)C[C@H]1C(=O)Nc1ccc(F)cc1C(F)(F)F)NO | 0.00701 | 24.5 | 
24 | O=C(C[C@@H](CC1CCCC1)C(=O)N1CC2(CC2)C[C@H]1c1nc(-c2cc(F)cc(F)c2F)no1)NO | 0.00708 | 3.62 | 
25 | O=C(C[C@@H](CC1CCCC1)C(=O)N1CC2(CC2)C[C@H]1c1nc(-c2cnccn2)no1)NO | 0.0161 | > 40 | 
26 | CCCC[C@H](CC(=O)NO)C(=O)N1CC2(CC2)C[C@H]1C(=O)Nc1ncc(C)s1 | 0.00942 | > 40 | 
27 | Cc1ccc(NC(=O)[C@@H]2CC3(CC3)CN2C(=O)[C@@H](CC(=O)NO)CC2CCCC2)cc1 | 0.00358 | 11.2 | 
28 | Cc1cc(C)cc(C(=O)NOCCCCCC(=O)NO)c1 |  |  | IC50 [10]: 0.012 µM; IC50 [11]: 0.058 µM
29 | O=C(C[C@@H](CC1CCCC1)C(=O)N1CC2(CC2)C[C@H]1C(=O)Nc1ccc(Br)cc1)NO | 0.00612 | 5.35 | 
30 | Cc1cnc(NC(=O)[C@@H]2CCCN2C(=O)[C@@H](CC(=O)NO)CC2CCCC2)s1 | 0.00894 | > 40 | 
31 | CCCC[C@H](CC(=O)NO)C(=O)N1CC2(CC2)C[C@H]1C(=O)Nc1ccc(F)cn1 | 0.00492 | > 40 | 
